This is an account of results in the NIST ThermoML archive (doi:10.1016/j.fluid.2013.07.010).

The conditions of data set [1]: Crystal; DTA.
Data set [2] is described as follows: Molar enthalpy of transition or fusion. The settings on record: Crystal; DSC.

Structures are written as SMILES. Numbers after ± are expanded uncertainties.

For the compound `Nc1ccc(Oc2ccc(N)cc2)cc1` [4,4'-diaminodiphenyl ether], the Normal melting temperature in data set [1] amounted to 189.52 ± 0.39 °C. The “Molar enthalpy of transition or fusion” value in data set [2] was 37.9 ± 1.7 kJ/mol.
